Reference: PubChem BioAssay AID2060513 (Molecular Pharmacology Branch, DTP, NCI, 2025)

Test system: 299254-011-R-J1-PDC complex spheroids viability
Assay: Anticancer human tumor 299254-011-R-J1-PDC patient-derived melanoma cell line growth inhibition [GQUAD]
Conditions: for IC50: curve of first compound; for viability, T/C: stronger effect = lower value
How it was run: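 Multi-cell-type spheroids of tumor cells with HUVEC and mesenchymal stem cells, treated with drug combinations. Concentrations descend in half-log steps from near clinical Cmax, or from 10 microM where Cmax is unknown; viability read-out.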

[1] = second compound 0.0316 µM, first compound 0.0316 µM
[2] = second compound 0.0316 µM, first compound 0.1 µM
[3] = second compound 0.0316 µM, first compound 0.316 µM
[4] = second compound 0.0316 µM, first compound 1 µM
[5] = second compound 0.0316 µM, first compound 3.16 µM
[6] = second compound 0.0316 µM, first compound 10 µM
[7] = second compound 0.1 µM, first compound 0.0316 µM
[8] = second compound 0.1 µM, first compound 0.1 µM
[9] = second compound 0.1 µM, first compound 0.316 µM
[10] = second compound 0.1 µM, first compound 1 µM
[11] = second compound 0.1 µM, first compound 3.16 µM
[12] = second compound 0.1 µM, first compound 10 µM
[13] = second compound 0.316 µM, first compound 0.0316 µM
[14] = second compound 0.316 µM, first compound 0.1 µM
[15] = second compound 0.316 µM, first compound 0.316 µM
[16] = second compound 0.316 µM, first compound 1 µM
[17] = second compound 0.316 µM, first compound 3.16 µM
[18] = second compound 0.316 µM, first compound 10 µM
[19] = second compound 1 µM, first compound 0.0316 µM
[20] = second compound 1 µM, first compound 0.1 µM
[21] = second compound 1 µM, first compound 0.316 µM
[22] = second compound 1 µM, first compound 1 µM
[23] = second compound 1 µM, first compound 3.16 µM
[24] = second compound 1 µM, first compound 10 µM
[25] = second compound 3.16 µM, first compound 0.0316 µM
[26] = second compound 3.16 µM, first compound 0.1 µM
[27] = second compound 3.16 µM, first compound 0.316 µM
[28] = second compound 3.16 µM, first compound 1 µM
[29] = second compound 3.16 µM, first compound 3.16 µM
[30] = second compound 3.16 µM, first compound 10 µM
[31] = second compound 10 µM, first compound 0.0316 µM
[32] = second compound 10 µM, first compound 0.1 µM
[33] = second compound 10 µM, first compound 0.316 µM
[34] = second compound 10 µM, first compound 1 µM
[35] = second compound 10 µM, first compound 3.16 µM
[36] = second compound 10 µM, first compound 10 µM
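Note: spheroids exposed to the agents for seven days before readout.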
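Throughout, for viability, T/C: percent viability relative to DMSO vehicle control wells = 100%.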

## O=c1[nH]cc(F)c(=O)[nH]1 + Cc1[nH]c2ccc(F)cc2c1-c1nc2c3cccnc3c3ncccc3c2[nH]1
Second compound 0.0316 µM
  IC50: > 10000 nM
Second compound 0.1 µM
  IC50: > 10000 nM
Second compound 0.316 µM
  IC50: > 10000 nM
Second compound 1 µM
  IC50: > 10000 nM
Second compound 3.16 µM
  IC50: > 10000 nM
Second compound 10 µM
  IC50: > 10000 nM
[1]
  viability, T/C: 131%
[2]
  viability, T/C: 114%
[3]
  viability, T/C: 113%
[4]
  viability, T/C: 121%
[5]
  viability, T/C: 116%
[6]
  viability, T/C: 125%
[7]
  viability, T/C: 120%
[8]
  viability, T/C: 105%
[9]
  viability, T/C: 110%
[10]
  viability, T/C: 123%
[11]
  viability, T/C: 98.3%
[12]
  viability, T/C: 123%
[13]
  viability, T/C: 104%
[14]
  viability, T/C: 99.6%
[15]
  viability, T/C: 119%
[16]
  viability, T/C: 100%
[17]
  viability, T/C: 97.5%
[18]
  viability, T/C: 97.8%
[19]
  viability, T/C: 88.3%
[20]
  viability, T/C: 98.6%
[21]
  viability, T/C: 106%
[22]
  viability, T/C: 108%
[23]
  viability, T/C: 116%
[24]
  viability, T/C: 106%
[25]
  viability, T/C: 99.3%
[26]
  viability, T/C: 107%
[27]
  viability, T/C: 96%
[28]
  viability, T/C: 113%
[29]
  viability, T/C: 90.4%
[30]
  viability, T/C: 107%
[31]
  viability, T/C: 96.4%
[32]
  viability, T/C: 96.5%
[33]
  viability, T/C: 92.1%
[34]
  viability, T/C: 102%
[35]
  viability, T/C: 98.9%
[36]
  viability, T/C: 88%

## CC1COCCN1c1cc(C2(O)CC3CCC(C2)O3)c2cnn(-c3ccn[nH]3)c2n1 (centres undefined) + Cc1cnc(CNC(=O)c2c(=O)c3ccc(N4CCCN(C)CC4)nc3n3c2sc2ccccc23)cn1
Second compound 0.0316 µM
  IC50: 89.3 nM
Second compound 0.1 µM
  IC50: 104 nM
Second compound 0.316 µM
  IC50: < 31.6 nM
Second compound 1 µM
  IC50: < 31.6 nM
Second compound 3.16 µM
  IC50: < 31.6 nM
Second compound 10 µM
  IC50: < 31.6 nM
[1]
  viability, T/C: 94.4%
[2]
  viability, T/C: 41.6%
[3]
  viability, T/C: 28.7%
[4]
  viability, T/C: 11.4%
[5]
  viability, T/C: 13%
[6]
  viability, T/C: 3.95%
[7]
  viability, T/C: 58.6%
[8]
  viability, T/C: 51.5%
[9]
  viability, T/C: 18.6%
[10]
  viability, T/C: 14.1%
[11]
  viability, T/C: 9.97%
[12]
  viability, T/C: 4.33%
[13]
  viability, T/C: 31.4%
[14]
  viability, T/C: 32%
[15]
  viability, T/C: 14.3%
[16]
  viability, T/C: 15.9%
[17]
  viability, T/C: 11%
[18]
  viability, T/C: 4.06%
[19]
  viability, T/C: 22.3%
[20]
  viability, T/C: 21%
[21]
  viability, T/C: 17.1%
[22]
  viability, T/C: 12.8%
[23]
  viability, T/C: 14.8%
[24]
  viability, T/C: 6.33%
[25]
  viability, T/C: 18.8%
[26]
  viability, T/C: 22.3%
[27]
  viability, T/C: 17.1%
[28]
  viability, T/C: 10.6%
[29]
  viability, T/C: 13.1%
[30]
  viability, T/C: 7.02%
[31]
  viability, T/C: 0.16%
[32]
  viability, T/C: 0.22%
[33]
  viability, T/C: 0.23%
[34]
  viability, T/C: 0.17%
[35]
  viability, T/C: 0.29%
[36]
  viability, T/C: 0.23%
